What was measured:
rats [1] = assay: 4-hour acute inhalation toxicity in rats (LC-50); assay type: in vivo; settings: 4 hr inhalation in air, 14-day post-dose monitoring
Procedure: The 4-hour acute inhalation toxicity in rats (LC-50) was measured by dosing animals in air at the amounts shown in Table 2 for 4 hours, followed by 14-day post-dose monitoring. Based on the animal test results and the vapor concentration of the test compound, the LC-50 values were estimated.

[2] = Log KOW (octanol/water partition coefficient) by HPLC, OECD Method 117; assay type: physicochemical
Procedure: In these Examples, values of Log KOW (octanol/water partition coefficients) were determined by HPLC using the method described in OECD Method 117.

rats [3] = assay: Acute single dose oral toxicity in rats; assay type: in vivo; settings: single oral dose 2000 mg/kg body weight
Procedure: The acute single dose oral toxicity of Comparative Example CE2 was examined in rats dosed at 2000 mg/kg body weight. […] Based on this study, the LD50 of CE2 was estimated to be >2000 mg/kg body weight.

Row | Molecule | LC-50 (4 hr Inhalation rats) (rats [1]) | Log KOW [2] | clinical observations during the post dose recovery period (rats [3]) | necropsy results (rats [3])
1 | COC(F)(C(F)(F)C(F)(F)F)C(F)(C(F)(F)F)C(F)(F)F (centres unmarked) [CE1, NOVEC 7300] | >430 mg/L | 4.3 |  | 
2 | FC(F)(F)C(F)(F)C1(F)OCCC1(C(F)(F)F)C(F)(F)F (centres unmarked) [Example 1, 2-fluoro-2-(1,1,2,2,2-pentafluoroethyl)-3,3-bis(trifluoromethyl)tetrahydrofuran] | >1000 ppmv | 4.4 |  | 
3 | FC(F)(F)C(F)(F)C(F)(F)C1(C(F)(F)F)CCOC1(F)C(F)(C(F)(F)F)C(F)(F)F (centres unmarked) [Example 2, 2-fluoro-3-(1,1,2,2,3,3,3-heptafluoropropyl)-2-[1,2,2,2-tetrafluoro-1-(trifluoromethyl)ethyl]-3-(trifluoromethyl)tetrahydrofuran] |  | 5.8 |  | 
4 | NOVEC 7700 [Comparative Example CE2] |  | 6.6 | No adverse clinical observations | normal for all animals
